Data taken from the Kinase Knowledgebase extract (Sharma et al. 2016).

Target: CDK2 (human) (UniProt P24941)
Experiment: Enzyme Assay

How did the IC50 turn out when Cc1cc(NCCN(C)C)ccc1NC(=O)c1ccc(C(=O)Nc2ccc(-n3cncn3)cc2)s1 was run?
The IC50 was 1 to 40 µM.

How did the IC50 turn out when COc1ccc(NC(=O)c2ccc(C(=O)Nc3ccc(F)cc3-n3cncn3)s2)c(C)c1 was run?
The IC50 was 1 to 40 µM.

How did the IC50 turn out when O=C(Nc1ccc(Cl)cc1)c1ccc(C(=O)Nc2ccc(-n3cncn3)cc2)s1 was run?
The IC50 was 1 to 40 µM.

With O=C(Nc1ccccc1)c1ccc(C(=O)Nc2ccc(-n3cncn3)cc2)o1 as the molecule, how does the IC50 read?
The IC50 was 1 to 40 µM.

Which IC50 does the source give for Cc1cccc(NC(=O)c2ccc(C(=O)Nc3ccc(-n4cncn4)cc3)s2)n1 here?
Its IC50 is at least 40 µM.

How did the IC50 turn out when Cc1cc(CNC(=O)c2ccc(C(=O)Nc3ccc(-n4cncn4)cc3)s2)no1 was run?
The IC50 was at least 40 µM.

COc1ccc(NC(=O)c2ccc(C(=O)Nc3ccc4scnc4c3)s2)c(C)c1 was tested. Which IC50 did it give?
The IC50 was at least 40 µM.

How did the IC50 turn out when O=C(NC[C@H]1CCCO1)c1ccc(C(=O)Nc2ccc(-n3cncn3)cc2)s1 was run?
Its IC50 is at least 40 µM.

O=C(Nc1ccc(-n2cncn2)cc1)c1ccc(C(=O)N[C@@H]2CCNC2)s1 was tested. Which IC50 did it give?
Its IC50 is at least 40 µM.

CN1CCC(NC(=O)c2ccc(C(=O)Nc3ccc(-n4cncn4)cc3)s2)CC1 was tested. Which IC50 did it give?
Its IC50 is at least 40 µM.

COc1ccccc1NC(=O)c1ccc(C(=O)Nc2ccc(-n3cncn3)cc2)s1 was tested. Which IC50 did it give?
Its IC50 is at least 40 µM.

For COc1ccc(NC(=O)c2ccc(C(=O)Nc3ccc4sc(SC)nc4c3)s2)c(C)c1, which IC50 is on record?
Its IC50 is at least 40 µM.

For O=C(NCc1ccc2c(c1)CCO2)c1ccc(C(=O)Nc2ccc(-n3cncn3)cc2)s1, which IC50 is on record?
Its IC50 is at least 40 µM.

For Cn1nc(-c2ccc(Cl)cc2)cc1NC(=O)c1ccc(C(=O)Nc2ccc(-n3cncn3)cc2)s1, which IC50 is on record?
The IC50 was at least 40 µM.

O=C(Nc1ccc(-n2cncn2)c(F)c1)c1ccc(C(=O)Nc2ccccc2-n2cccn2)s1 was tested. Which IC50 did it give?
The IC50 was at least 40 µM.

Which IC50 does the source give for COc1ccc(NC(=O)c2ccc(C(=O)Nc3ccc(N(C)C)cc3)s2)c(C)c1 here?
The IC50 was at least 40 µM.

Which IC50 does the source give for Cc1cc(O)ccc1NC(=O)c1ccc(C(=O)Nc2ccc(-n3cncn3)cc2)s1 here?
Its IC50 is at most 1 µM.

How did the IC50 turn out when Cc1cc(N2CCOCC2)ccc1NC(=O)c1ccc(C(=O)Nc2ccc(-n3cncn3)c(F)c2)s1 was run?
Its IC50 is at most 1 µM.

For Cc1cc(CN2CCOCC2)ccc1NC(=O)c1ccc(C(=O)Nc2ccc(-n3cncn3)cc2)s1, which IC50 is on record?
The IC50 was at most 1 µM.

With O=C(Nc1ccc(-n2cncn2)c(F)c1)c1ccc(C(=O)Nc2ccccc2Cl)s1 as the molecule, how does the IC50 read?
The IC50 was at most 1 µM.

O=C(NCc1ccncc1)c1ccc(C(=O)Nc2ccc(-n3cncn3)cc2)s1 was tested. Which IC50 did it give?
The IC50 was at least 40 µM.

How did the IC50 turn out when COc1ccc(C(=O)Nc2ccc(C(=O)N3CCC(Oc4cnccn4)CC3)s2)c(C)c1 was run?
Its IC50 is 1 to 40 µM.

Which IC50 does the source give for CN(Cc1ccco1)C(=O)c1ccc(C(=O)Nc2ccc(-n3cncn3)cc2)s1 here?
The IC50 was at least 40 µM.

How did the IC50 turn out when COc1ccc(NC(=O)c2ccc(C(=O)Nc3ccc(-c4csnn4)cc3)s2)c(C)c1 was run?
Its IC50 is at least 40 µM.

Nc1ccc(CNC(=O)c2ccc(C(=O)Nc3ccc(-n4cncn4)cc3)s2)cn1 was tested. Which IC50 did it give?
Its IC50 is at least 40 µM.

O=C(Nc1ccc(-n2cncn2)cc1)c1ccc(C(=O)N2CCCCC2)s1 was tested. Which IC50 did it give?
The IC50 was at least 40 µM.

Which IC50 does the source give for Cc1cc(CN2CCN(C)CC2)ccc1NC(=O)c1ccc(C(=O)Nc2ccc(-n3cncn3)cc2)s1 here?
The IC50 was at most 1 µM.

O=C(Nc1ccc(-n2cncn2)c(F)c1)c1ccc(C(=O)Nc2ccccc2COc2ccccc2)s1 was tested. Which IC50 did it give?
The IC50 was at least 40 µM.

Which IC50 does the source give for COC(=O)c1cc(OC)ccc1NC(=O)c1ccc(C(=O)Nc2ccc(-n3cncn3)cc2)s1 here?
The IC50 was 1 to 40 µM.

O=C(NCc1ccccn1)c1ccc(C(=O)Nc2ccc(-n3cncn3)cc2)s1 was tested. Which IC50 did it give?
Its IC50 is at least 40 µM.

How did the IC50 turn out when COc1ccc(NC(=O)c2ccc(C(=O)Nc3ccc(-n4cncn4)cc3)s2)cc1F was run?
The IC50 was at least 40 µM.

How did the IC50 turn out when O=C(Nc1ccc(-n2cncn2)c(F)c1)c1ccc(C(=O)NC2CCCCC2)o1 was run?
Its IC50 is at most 1 µM.

COc1ccccc1NC(=O)c1ccc(C(=O)Nc2ccc(-n3cncn3)c(F)c2)s1 was tested. Which IC50 did it give?
The IC50 was at least 40 µM.

COc1ccc(C(=O)Nc2ccc(C(=O)N3CCC(c4ccncc4)C3)s2)c(C)c1 (stereo unspecified) was tested. Which IC50 did it give?
The IC50 was at least 40 µM.

Cc1ccccc1NC(=O)c1ccc(C(=O)Nc2ccc(-n3cncn3)cc2)o1 was tested. Which IC50 did it give?
Its IC50 is at most 1 µM.

COc1ccc(N(C)C(=O)c2ccc(C(=O)Nc3ccc(-n4cncn4)cc3)s2)c(C)c1 was tested. Which IC50 did it give?
Its IC50 is 1 to 40 µM.

With O=C(Nc1ccc(-n2cncn2)cc1)c1ccc(C(=O)Nc2ccccn2)s1 as the molecule, how does the IC50 read?
The IC50 was at least 40 µM.

For O=C(NCc1ccccc1)c1ccc(C(=O)Nc2ccc(-n3cncn3)cc2)s1, which IC50 is on record?
The IC50 was 1 to 40 µM.

For O=C(Nc1ccc(-n2cncn2)c(F)c1)c1ccc(C(=O)Nc2ccccc2F)s1, which IC50 is on record?
Its IC50 is at most 1 µM.

How did the IC50 turn out when O=C(Nc1ccc(-n2cncn2)cc1)c1ccc(C(=O)NC2CCCCC2)s1 was run?
Its IC50 is at least 40 µM.

For CN(C(=O)c1ccc(C(=O)Nc2ccc(-n3cncn3)cc2)s1)c1ccccc1, which IC50 is on record?
Its IC50 is at least 40 µM.

Which IC50 does the source give for Cc1ccsc1CNC(=O)c1ccc(C(=O)Nc2ccc(-n3cncn3)cc2)s1 here?
The IC50 was 1 to 40 µM.

How did the IC50 turn out when CC(CN(C)C)NC(=O)c1ccc(C(=O)Nc2ccc(-n3cncn3)cc2)s1 (stereo unspecified) was run?
Its IC50 is at least 40 µM.

How did the IC50 turn out when COc1ccc(NC(=O)c2ccc(C(=O)Nc3ccc(-n4cncn4)cc3)s2)c(C)c1 was run?
Its IC50 is at most 1 µM.

Which IC50 does the source give for O=C(Nc1ccc(-n2cncn2)cc1)c1ccc(C(=O)NC2CC2)s1 here?
The IC50 was at least 40 µM.

COc1ccc(NC(=O)c2ccc(C(=O)Nc3ccc(-c4cnco4)cc3)s2)c(C)c1 was tested. Which IC50 did it give?
The IC50 was at least 40 µM.

For COc1ccc(C(=O)Nc2ccc(C(=O)Nc3ccc(-c4nc[nH]n4)c(F)c3)s2)c(C)c1, which IC50 is on record?
The IC50 was at most 1 µM.

Cc1cc(Cn2ccnc2)ccc1NC(=O)c1ccc(C(=O)Nc2ccc(-n3cncn3)cc2)s1 was tested. Which IC50 did it give?
Its IC50 is at most 1 µM.

O=C(Nc1ccc(-n2cncn2)cc1)c1ccc(C(=O)N2CCN(c3ccccc3)CC2)s1 was tested. Which IC50 did it give?
Its IC50 is at least 40 µM.

How did the IC50 turn out when O=C(Nc1ccc(-n2cncn2)c(F)c1)c1ccc(C(=O)Nc2ccccc2OCc2ccncc2)s1 was run?
The IC50 was at least 40 µM.

With Cn1nc(C2CC2)cc1NC(=O)c1ccc(C(=O)Nc2ccc(-n3cncn3)cc2)s1 as the molecule, how does the IC50 read?
Its IC50 is 1 to 40 µM.

For O=C(Nc1ccc(-n2cncn2)cc1)c1ccc(C(=O)Nc2nc3ccccc3s2)s1, which IC50 is on record?
Its IC50 is 1 to 40 µM.

With COc1ccc(NC(=O)c2ccc(C(=O)N3CCC(c4ccncc4)C3)s2)c(C)c1 (stereo unspecified) as the molecule, how does the IC50 read?
Its IC50 is 1 to 40 µM.

With CC(C)NC(=O)c1ccc(C(=O)Nc2ccc(-n3cncn3)cc2)s1 as the molecule, how does the IC50 read?
Its IC50 is at least 40 µM.

O=C(Nc1ccc(-n2cncn2)c(F)c1)c1ccc(C(=O)N2CCOCC2)o1 was tested. Which IC50 did it give?
The IC50 was at least 40 µM.

Which IC50 does the source give for O=C(Nc1ccc(-n2cncn2)cc1)c1ccc(C(=O)Nc2nc3c(s2)CCCC3)s1 here?
Its IC50 is 1 to 40 µM.

How did the IC50 turn out when O=C(NCCN1CCCC1)c1ccc(C(=O)Nc2ccc(-n3cncn3)cc2)s1 was run?
Its IC50 is 1 to 40 µM.

How did the IC50 turn out when CN1CCC(NC(=O)c2ccc(C(=O)Nc3ccc(-n4cncn4)c(F)c3)o2)CC1 was run?
The IC50 was at least 40 µM.

For COc1ccc(C(=O)Nc2ccc(C(=O)Nc3ccc(-n4cncn4)cc3)o2)cc1, which IC50 is on record?
The IC50 was at least 40 µM.

How did the IC50 turn out when CN(C(=O)c1ccc(C(=O)Nc2ccc(-n3cncn3)c(F)c2)o1)C1CCCCC1 was run?
The IC50 was at least 40 µM.

For Cc1cc(Cn2ccnc2)ccc1NC(=O)c1ccc(C(=O)Nc2ccc(-n3cncn3)c(F)c2)s1, which IC50 is on record?
Its IC50 is at most 1 µM.

O=C(Nc1ccc(-n2cncn2)c(F)c1)c1ccc(C(=O)Nc2ccccc2OCc2ccccc2)s1 was tested. Which IC50 did it give?
The IC50 was at least 40 µM.

For Cc1cc(CN(C)C)ccc1NC(=O)c1ccc(C(=O)Nc2ccc(-n3cncn3)cc2)s1, which IC50 is on record?
The IC50 was 1 to 40 µM.

How did the IC50 turn out when O=C(Nc1ccc(-n2cncn2)c(F)c1)c1ccc(C(=O)N[C@H]2CC[C@H](O)CC2)o1 was run?
The IC50 was 1 to 40 µM.

CN(C)CCNC(=O)c1ccc(C(=O)Nc2ccc(-n3cncn3)cc2)s1 was tested. Which IC50 did it give?
Its IC50 is at least 40 µM.

With COc1ccc(C(=O)Nc2ccc(C(=O)N3CCC(c4ccncc4)C3)o2)c(C)c1 (stereo unspecified) as the molecule, how does the IC50 read?
The IC50 was at least 40 µM.

COc1ccc(NC(=O)c2ccc(C(=O)Nc3cccc(-c4cnco4)c3)s2)c(C)c1 was tested. Which IC50 did it give?
The IC50 was at least 40 µM.

How did the IC50 turn out when COc1ccc(NC(=O)c2ccc(C(=O)Nc3ccc4ncccc4c3)s2)c(C)c1 was run?
The IC50 was at least 40 µM.

Which IC50 does the source give for O=C(Nc1ccc(-n2cncn2)cc1)c1ccc(C(=O)N2CCCC2c2cccnc2)s1 (stereo unspecified) here?
The IC50 was at least 40 µM.

Which IC50 does the source give for CN(C)CCCNC(=O)c1ccc(C(=O)Nc2ccc(-n3cncn3)cc2)s1 here?
The IC50 was at least 40 µM.

Cc1cc(C)nc(NC(=O)c2ccc(C(=O)Nc3ccc(-n4cncn4)cc3)s2)c1 was tested. Which IC50 did it give?
Its IC50 is at least 40 µM.
